#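 96-well plates; 48 h exposure; 5 concentrations. Endpoints by linear interpolation between flanking doses. Not reached: highest tested concentration assigned. Here, GI50 denotes the concentration required for 50% inhibition of growth.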 The source made the active and inactive calls. Cut-off read from the data, not from the text of the source: active = GI50 up to about 1.1 µM and inactive = higher.
# Columns and labels:
# Test in all cases: DTP human tumour cell line panel, 48 h
# [1] = system: 786-0
# [2] = system: A498
# [3] = system: A549
# [4] = system: ACHN
# [5] = system: CCRF-CEM
# [6] = system: COLO 205
# [7] = system: DLD-1
# [8] = system: DMS-114
# [9] = system: DMS-273
# [10] = system: HCC 2998
# [11] = system: HCT-116
# [12] = system: HCT-15
# [13] = system: HL-60
# [14] = system: HOP-18
# [15] = system: HOP-62
# [16] = system: HOP-92
# [17] = system: HT-29
# [18] = system: IGROV-1
# [19] = system: K562
# [20] = system: KM12
# [21] = system: LXFL 529
# [22] = system: M14
# [23] = system: M19-MEL
# [24] = system: MOLT-4
# [25] = system: Malme-3M
# [26] = system: NCI-H226
# [27] = system: NCI-H23
# [28] = system: NCI-H460
# [29] = system: NCI-H522
# [30] = system: OVCAR-3
# [31] = system: OVCAR-4
# [32] = system: OVCAR-5
# [33] = system: OVCAR-8
# [34] = system: RPMI-8226
# [35] = system: SF-268
# [36] = system: SF-295
# [37] = system: SF-539
# [38] = system: SK-MEL-28
# [39] = system: SK-MEL-2
# [40] = system: SK-MEL-5
# [41] = system: SK-OV-3
# [42] = system: SN12C
# [43] = system: SNB-75
# [44] = system: SNB-78
# [45] = system: SR
# [46] = system: SW-620
# [47] = system: TK-10
# [48] = system: U-251
# [49] = system: UACC-257
# [50] = system: UACC-62
# [51] = system: UO-31
# [52] = system: KM-20L2
# [53] = system: LOX IMVI
# [54] = system: SNB-19
# [55] = system: BT-549
# [56] = system: CAKI-1
# [57] = system: DU-145
# [58] = system: EKVX
# [59] = system: Hs-578T
# [60] = system: MCF7
# [61] = system: MDA-MB-231
# [62] = system: MDA-MB-435
# [63] = system: MDA-N
# [64] = system: NCI/ADR-RES
# [65] = system: PC-3
# [66] = system: RXF 393
# [67] = system: T47D
smiles,measurement,setting,value
Clc1ccc(C2=NOC(C3CCCCC3)C2)cc1 (stereo not given),GI50,[1],> 100 µM (inactive)
same,GI50,[2],> 100 µM (inactive)
same,GI50,[3],> 100 µM (inactive)
same,GI50,[4],> 100 µM (inactive)
same,GI50,[5],> 100 µM (inactive)
same,GI50,[6],> 100 µM (inactive)
same,GI50,[7],> 100 µM (inactive)
same,GI50,[8],> 100 µM (inactive)
same,GI50,[9],> 100 µM (inactive)
same,GI50,[10],> 100 µM (inactive)
same,GI50,[11],> 100 µM (inactive)
same,GI50,[12],> 100 µM
same,GI50,[13],> 100 µM (inactive)
same,GI50,[14],> 100 µM (inactive)
same,GI50,[15],> 100 µM (inactive)
same,GI50,[16],> 100 µM (inactive)
same,GI50,[17],> 100 µM (inactive)
same,GI50,[18],> 100 µM (inactive)
same,GI50,[19],> 100 µM (inactive)
same,GI50,[20],> 100 µM (inactive)
same,GI50,[21],> 100 µM (inactive)
same,GI50,[22],> 100 µM (inactive)
same,GI50,[23],> 100 µM (inactive)
same,GI50,[24],> 100 µM (inactive)
same,GI50,[25],> 100 µM (inactive)
same,GI50,[26],> 100 µM (inactive)
same,GI50,[27],> 100 µM (inactive)
same,GI50,[28],> 100 µM (inactive)
same,GI50,[29],> 100 µM (inactive)
same,GI50,[30],> 100 µM (inactive)
same,GI50,[31],> 100 µM (inactive)
same,GI50,[32],> 100 µM (inactive)
same,GI50,[33],> 100 µM (inactive)
same,GI50,[34],> 100 µM (inactive)
same,GI50,[35],> 100 µM (inactive)
same,GI50,[36],> 100 µM (inactive)
same,GI50,[37],> 100 µM (inactive)
same,GI50,[38],> 100 µM (inactive)
same,GI50,[39],> 100 µM (inactive)
same,GI50,[40],> 100 µM (inactive)
same,GI50,[41],> 100 µM (inactive)
same,GI50,[42],> 100 µM (inactive)
same,GI50,[43],> 100 µM (inactive)
same,GI50,[44],> 100 µM (inactive)
same,GI50,[45],> 100 µM (inactive)
same,GI50,[46],> 100 µM (inactive)
same,GI50,[47],> 100 µM (inactive)
same,GI50,[48],> 100 µM (inactive)
same,GI50,[49],> 100 µM (inactive)
same,GI50,[50],> 100 µM (inactive)
same,GI50,[51],> 100 µM (inactive)
Oc1ccccc1-c1nnc(S)n1/N=C/c1ccc(-c2ccc(Br)cc2)o1,GI50,[1],39.2 µM (inactive)
same,GI50,[3],48.1 µM (inactive)
same,GI50,[4],29.6 µM (inactive)
same,GI50,[6],39.6 µM (inactive)
same,GI50,[7],34 µM (inactive)
same,GI50,[11],33.7 µM (inactive)
same,GI50,[15],29.9 µM (inactive)
same,GI50,[16],18.4 µM (inactive)
same,GI50,[17],51.3 µM (inactive)
same,GI50,[18],29.2 µM (inactive)
same,GI50,[19],32.1 µM (inactive)
same,GI50,[52],35.5 µM (inactive)
same,GI50,[20],34.7 µM (inactive)
same,GI50,[53],23.7 µM (inactive)
same,GI50,[21],22 µM (inactive)
same,GI50,[22],41.7 µM (inactive)
same,GI50,[23],42.5 µM (inactive)
same,GI50,[24],25.4 µM (inactive)
same,GI50,[26],22.9 µM (inactive)
same,GI50,[27],20.5 µM (inactive)
same,GI50,[28],95.9 µM (inactive)
same,GI50,[29],60.4 µM (inactive)
same,GI50,[30],24.2 µM (inactive)
same,GI50,[31],15.6 µM (inactive)
same,GI50,[32],> 100 µM (inactive)
same,GI50,[33],34 µM (inactive)
same,GI50,[35],40.3 µM (inactive)
same,GI50,[36],60.4 µM (inactive)
same,GI50,[37],33 µM (inactive)
same,GI50,[38],56.5 µM (inactive)
same,GI50,[41],31 µM (inactive)
same,GI50,[54],24.4 µM (inactive)
same,GI50,[43],32.7 µM (inactive)
same,GI50,[44],23.6 µM (inactive)
same,GI50,[46],38.6 µM (inactive)
same,GI50,[47],15.2 µM (inactive)
same,GI50,[48],25.9 µM (inactive)
same,GI50,[49],24.3 µM (inactive)
same,GI50,[50],13.1 µM (inactive)
same,GI50,[51],28 µM (inactive)
O=C(O)C(CSC(c1ccccc1)(c1ccccc1)c1ccccc1)/N=C/c1cccs1 (stereo not given),GI50,[1],1.17 µM (inactive)
same,GI50,[2],30.3 µM (inactive)
same,GI50,[3],3.95 µM (inactive)
same,GI50,[4],12.8 µM (inactive)
same,GI50,[55],4.97 µM (inactive)
same,GI50,[56],7.46 µM (inactive)
same,GI50,[5],1.87 µM (inactive)
same,GI50,[6],1.69 µM (inactive)
same,GI50,[57],3.85 µM (inactive)
same,GI50,[58],5.42 µM (inactive)
same,GI50,[10],2.06 µM (inactive)
same,GI50,[11],0.468 µM (active)
same,GI50,[12],4.24 µM
same,GI50,[13],2.54 µM (inactive)
same,GI50,[15],5.62 µM (inactive)
same,GI50,[16],14.6 µM (inactive)
same,GI50,[17],2.96 µM (inactive)
same,GI50,[59],3.2 µM (inactive)
same,GI50,[18],1.95 µM (inactive)
same,GI50,[19],3.54 µM (inactive)
same,GI50,[20],2.78 µM (inactive)
same,GI50,[53],4.34 µM (inactive)
same,GI50,[22],0.378 µM (active)
same,GI50,[60],0.853 µM (active)
same,GI50,[61],1.57 µM (inactive)
same,GI50,[62],0.324 µM (active)
same,GI50,[63],0.357 µM (active)
same,GI50,[24],4.19 µM (inactive)
same,GI50,[25],3.6 µM (inactive)
same,GI50,[26],9.12 µM (inactive)
same,GI50,[27],4.94 µM (inactive)
same,GI50,[28],3.16 µM (inactive)
same,GI50,[29],1.16 µM (inactive)
same,GI50,[64],14 µM (inactive)
same,GI50,[30],2.31 µM (inactive)
same,GI50,[31],15.1 µM (inactive)
same,GI50,[32],5.45 µM (inactive)
same,GI50,[33],2.55 µM (inactive)
same,GI50,[65],1.89 µM (inactive)
same,GI50,[34],2.45 µM (inactive)
same,GI50,[66],2.07 µM (inactive)
same,GI50,[35],2.42 µM (inactive)
same,GI50,[36],1.26 µM (inactive)
same,GI50,[37],1.27 µM (inactive)
same,GI50,[38],7.48 µM (inactive)
same,GI50,[39],2.06 µM (inactive)
same,GI50,[40],0.484 µM (active)
same,GI50,[41],0.968 µM (active)
same,GI50,[42],3.27 µM (inactive)
same,GI50,[54],2.42 µM (inactive)
same,GI50,[43],5.48 µM (inactive)
same,GI50,[45],4.42 µM (inactive)
same,GI50,[46],1.76 µM (inactive)
same,GI50,[67],3.37 µM (inactive)
same,GI50,[47],10.8 µM (inactive)
same,GI50,[48],2 µM (inactive)
same,GI50,[49],4.13 µM (inactive)
same,GI50,[50],1.17 µM (inactive)
same,GI50,[51],17.7 µM (inactive)
